In patent publication US4194006A, “Therapeutic application of acetyl-d,l-carnitine and other acyl derivatives of d,l-carnitine” (priority 1977, dated 1980):
Where two headings read alike, the source gives them in different places.

Assays:
isolated rat atrium = experiment: antiarrhythmic effect, isolated rat atrium method of M. Libonati and G. Segre; conditions: Rattus norvegicus; for inhibition at 0.1 µg/mL / activation at 0.1 µg/mL: 1·10^-4 g/lt; for inhibition at 0.1 µg/mL / inhibition at 0.01 µg/mL / inhibition at 0.001 µg/mL: decrease; for activation at 0.1 µg/mL / activation at 0.01 µg/mL / activation at 0.001 µg/mL: increase; for inhibition at 0.01 µg/mL / activation at 0.01 µg/mL: 1·10^-5 g/lt; for inhibition at 0.001 µg/mL / activation at 0.001 µg/mL: 1·10^-6 g/lt
female rats = experiment: antifatigue effect: rota-rod; type: in vivo, rat; conditions: Rattus norvegicus, ip, 0.25 h, read-out: percentage of animals staying on the rota-rod more than 180 seconds; for responders at 300 mg/kg: 300 mg/kg i.p.; for responders at 400 mg/kg: 400 mg/kg i.p.; for responders at 600 mg/kg: 600 mg/kg i.p.
Procedure: The antifatigue effect was also examined with the following results. The antifatigue effect was investigated by administering the compounds of the formula (I) according to the present application to female rats intraperitoneally in saline solution and saline solution alone to the controls by the same route. Every 15 minutes (sessions) after treatment, the animals were placed on a 6 cm diameter rod, rotating at 16 r.p.m. The percentage of the animals capable of staying on the rota-rod for a duration of more than 180 seconds was then recorded.

isolated rabbit hearts [1] = experiment: cardiokinetic effect on isolated heart (Langendorff): contractile force after anoxia, positive inotropic effect; conditions: 10 minutes from interruption of anoxic period
Procedure: (§1) The cardiokinetic effect on isolated heart was also investigated as follows. Rabbit hearts isolated by the Langendorff method were perfused with oxygenized ringer solution at 38.2° C. The isometric contractions, electrocardiogram and coronary flow were recorded using a "Battaglia-Rangoni" polygraph. By removing the oxygen from the perfusion fluid, metabolic damage was induced in the cardia muscle, up to an 80% reduction in the cardiac contractile force.
(§2) Under these conditions of prolonged anoxia the aerobic glycolysis of the myocardium is slowed down, accompanied by the storage of acid catabolites due to both the accumulation of pyruvic acid and its conversion to lactic acid which cannot be utilized because of the depression of pyridine enzymes, such as LDH (lactodehydrogenase). This has repercussions on the anaerobic glycolysis affecting an ever increasing number of enzymes, accompanied by a progressive and increasingly critical exhaustion of the myocardium. Thus a whole series of cardiac muscle fatigue levels occurs which can be observed by the behavior of the examined parameters, namely the contractile force, coronary flow, heart rate and cardiac rhythm. As soon as the contractile force was reduced by 80%, the perfusion fluid was once again oxygenized either without adding other compounds (controls) or with the addition of the compounds under examination.
Table 3 below gives the percentage values of the contractile force of the heart, showing a positive inotropic effect, calculated after 10 minutes from the interruption of the anoxic period (myocardial restoration).

isolated rabbit hearts [2] = experiment: coronary vasodilator effect: coronary flow, isolated heart (Langendorff)
Procedure: as §1, §2

[3] = read-out: Mean percent variation versus controls: excitability (-%)
[4] = read-out: Mean percent variation versus controls: frequency max (-%)
[5] = read-out: Mean percent variation versus controls: refractory period (+%)
[6] = read-out: Mean percent variation versus controls: rheobase (+%)
[7] = session 6 (every 15 minutes), * p < 0.05

Compound	inhibition at 0.1 µg/mL (isolated rat atrium; [3]) [%]	inhibition at 0.1 µg/mL (isolated rat atrium; [4]) [%]	activation at 0.1 µg/mL (isolated rat atrium; [5]) [%]	activation at 0.1 µg/mL (isolated rat atrium; [6]) [%]	inhibition at 0.01 µg/mL (isolated rat atrium; [3]) [%]	inhibition at 0.01 µg/mL (isolated rat atrium; [4]) [%]	activation at 0.01 µg/mL (isolated rat atrium; [5]) [%]	activation at 0.01 µg/mL (isolated rat atrium; [6]) [%]	inhibition at 0.001 µg/mL (isolated rat atrium; [3]) [%]	inhibition at 0.001 µg/mL (isolated rat atrium; [4]) [%]	activation at 0.001 µg/mL (isolated rat atrium; [5]) [%]	activation at 0.001 µg/mL (isolated rat atrium; [6]) [%]	responders at 300 mg/kg (female rats; session 1 (every 15 minutes)) [%]	responders at 300 mg/kg (female rats; session 2 (every 15 minutes)) [%]	responders at 300 mg/kg (female rats; session 3 (every 15 minutes)) [%]	responders at 300 mg/kg (female rats; session 4 (every 15 minutes)) [%]	responders at 300 mg/kg (female rats; session 5 (every 15 minutes)) [%]	responders at 300 mg/kg (female rats; session 6 (every 15 minutes)) [%]	responders at 400 mg/kg (female rats; session 1 (every 15 minutes)) [%]	responders at 400 mg/kg (female rats; session 2 (every 15 minutes)) [%]	also measured
CCCCCCCCCC(=O)OC(CC(=O)[O-])C[N+](C)(C)C (racemic) [decanoyl-d,l-carnitine]	25.2	24.8	21.6	21.2	17.2	12	10.3	9.54	0	8.66	9.14	3.12	0	0	0	10	10	10	0	0	responders at 400 mg/kg (female rats; session 3 (every 15 minutes)): 0%; responders at 400 mg/kg (female rats; session 4 (every 15 minutes)): 10%; responders at 400 mg/kg (female rats; session 5 (every 15 minutes)): 10%; responders at 400 mg/kg (female rats; [7]): 10%; responders at 600 mg/kg (female rats; session 1 (every 15 minutes)): 0%; responders at 600 mg/kg (female rats; session 2 (every 15 minutes)): 0%; responders at 600 mg/kg (female rats; session 3 (every 15 minutes)): 0%; responders at 600 mg/kg (female rats; session 4 (every 15 minutes)): 10%; responders at 600 mg/kg (female rats; session 5 (every 15 minutes)): 10%; responders at 600 mg/kg (female rats; [7]): 20%; Contractile force, Mean ± S.E. (isolated rabbit hearts [1]; 1·10^-5 g/lt): 36.3 ± 6.53%; Contractile force, Mean ± S.E. (isolated rabbit hearts [1]; 1·10^-6 g/lt): 26.9 ± 5.02%; Contractile force, Mean ± S.E. (isolated rabbit hearts [1]; 5·10^-6 g/lt): 29.1 ± 3.12%; Coronary flow, Mean ± S.E. (isolated rabbit hearts [2]; 1·10^-5 g/lt): 83.21 ± 5.70%; Coronary flow, Mean ± S.E. (isolated rabbit hearts [2]; 1·10^-6 g/lt): 76.30 ± 9.42%; Coronary flow, Mean ± S.E. (isolated rabbit hearts [2]; 5·10^-6 g/lt): 72.60 ± 12.4%
CCCCCC(=O)OC(CC(=O)[O-])C[N+](C)(C)C (racemic) [hexanoyl-d,l-carnitine]	26.3	25.1	21.7	21.7	18.2	12.3	12.7	10.1	12.4	8.71	9.04	6.2	0	0	0	0	10	10	0	0	responders at 400 mg/kg (female rats; session 3 (every 15 minutes)): 0%; responders at 400 mg/kg (female rats; session 4 (every 15 minutes)): 0%; responders at 400 mg/kg (female rats; session 5 (every 15 minutes)): 10%; responders at 400 mg/kg (female rats; [7]): 10%; responders at 600 mg/kg (female rats; session 1 (every 15 minutes)): 0%; responders at 600 mg/kg (female rats; session 2 (every 15 minutes)): 0%; responders at 600 mg/kg (female rats; session 3 (every 15 minutes)): 10%; responders at 600 mg/kg (female rats; session 4 (every 15 minutes)): 10%; responders at 600 mg/kg (female rats; session 5 (every 15 minutes)): 20%; responders at 600 mg/kg (female rats; [7]): 30%; Contractile force, Mean ± S.E. (isolated rabbit hearts [1]; 1·10^-5 g/lt): 38.0 ± 4.80%; Contractile force, Mean ± S.E. (isolated rabbit hearts [1]; 1·10^-6 g/lt): 24.2 ± 3.88%; Contractile force, Mean ± S.E. (isolated rabbit hearts [1]; 5·10^-6 g/lt): 28.8 ± 3.16%; Coronary flow, Mean ± S.E. (isolated rabbit hearts [2]; 1·10^-5 g/lt): 84.08 ± 5.14%; Coronary flow, Mean ± S.E. (isolated rabbit hearts [2]; 1·10^-6 g/lt): 76.25 ± 4.75%; Coronary flow, Mean ± S.E. (isolated rabbit hearts [2]; 5·10^-6 g/lt): 75.28 ± 8.36%
CCCCCCCC(=O)OC(CC(=O)[O-])C[N+](C)(C)C (racemic) [octanoyl-d,l-carnitine]	47.8	17.2	39.8	4.16	28.6	36.2	16.5	0	12.7	10.9	5.73	9.46	0	0	0	0	10	10	0	0	responders at 400 mg/kg (female rats; session 3 (every 15 minutes)): 0%; responders at 400 mg/kg (female rats; session 4 (every 15 minutes)): 0%; responders at 400 mg/kg (female rats; session 5 (every 15 minutes)): 10%; responders at 400 mg/kg (female rats; [7]): 10%; responders at 600 mg/kg (female rats; session 1 (every 15 minutes)): 0%; responders at 600 mg/kg (female rats; session 2 (every 15 minutes)): 0%; responders at 600 mg/kg (female rats; session 3 (every 15 minutes)): 10%; responders at 600 mg/kg (female rats; session 4 (every 15 minutes)): 10%; responders at 600 mg/kg (female rats; session 5 (every 15 minutes)): 10%; responders at 600 mg/kg (female rats; [7]): 30%; Contractile force, Mean ± S.E. (isolated rabbit hearts [1]; 1·10^-5 g/lt): 37.8 ± 4.62%; Contractile force, Mean ± S.E. (isolated rabbit hearts [1]; 1·10^-6 g/lt): 25.2 ± 3.60%; Contractile force, Mean ± S.E. (isolated rabbit hearts [1]; 5·10^-6 g/lt): 29.8 ± 4.13%; Coronary flow, Mean ± S.E. (isolated rabbit hearts [2]; 1·10^-5 g/lt): 84.71 ± 6.20%; Coronary flow, Mean ± S.E. (isolated rabbit hearts [2]; 1·10^-6 g/lt): 76.24 ± 6.13%; Coronary flow, Mean ± S.E. (isolated rabbit hearts [2]; 5·10^-6 g/lt): 76.00 ± 9.16%
